The values below come from PubChem BioAssay (NCI).

What all share (test): inhibition of tumour cell growth, NCI panel, 48 h
Test [1] has as its system SF-295 CNS.
The subject of test [2] is COLO 205 colon.
Test [3] concerns HOP-62 NSCLC.
The test system of test [4] is SF-268 CNS.
Test [5] concerns ACHN renal.
Test [6] has as its system 786-0 renal.
Test [7] concerns EKVX NSCLC.
Test [8] deals with LOX IMVI melanoma.
The subject of test [9] is SNB-75 CNS.
The subject of test [10] is SNB-19 CNS.

“And” between values parts separate entries of the source, which are not always exact repeats. Identical values can stand only once.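 How tested: cells in 96-well plates exposed to compound for 48 hours at five concentrations. Abbreviation: GI50, concentration required for 50% inhibition of growth. Definition used: TGI = concentration required for complete inhibition of growth.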

For the molecule `Cc1c2cnccc2c(C)c2c1c1cc(C(=O)O)ccc1n2C`, the GI50 in test [1] was 1.16 µM; in test [2], 0.594 µM; in test [3] it was 0.642 µM; in test [4], 0.937 µM; in test [5] it was 0.464 µM; in test [6], 1.23 µM. Moreover, the GI50 is 1.53 µM in [7], 0.579 µM in test [8], 1.1 µM in test [9] and 0.738 µM in test [10]. The TGI was 6.65 µM in test [1]; 4.02 µM in [2]; 7.52 µM in test [3]; 4.81 µM in test [4]; 5.27 µM in test [5]; 11.8 µM in test [6]. Moreover, the TGI in test [7] stood at 5.74 µM; in test [8], 4.18 µM; in [9], 2.53 µM; in [10], 10.3 µM.

As for `C=CC(=O)NCCOc1cccc(Nc2cc(NCCCNC(=O)C3CCC3)c(Br)cn2)c1`, the GI50 in [1] is 1.34 µM; in test [2], 0.632 µM; in [3], 0.302 µM; in test [4], 0.482 µM; in test [5] it was 0.75 µM; in [6], 0.989 µM. The GI50 in [7] was 2.31 µM; in [8] it was 0.776 µM; in test [9] it was 0.252 µM; in test [10], 1.08 µM. The TGI in [1] was 23.4 µM; in test [2] it was 2.1 µM; in test [3], 4.98 µM; in test [4] it was 3.73 µM; in test [5] it was above 25 µM; in test [6], above 25 µM. The TGI is 22.5 µM in [7], 5.4 µM in test [8], 1.38 µM in test [9] and 14 µM in [10].

Consider `NC(=O)c1ccc2nc(-c3ccc(C4(N)CCC4)cc3)c(-c3ccccc3)n2n1`, for which the GI50 was 1.26 µM in [1]; 0.976 µM in test [2]; 11.6 µM in test [3]; 13.1 µM in test [4]; 5.97 µM in test [5]; 1.23 µM in test [6]. The GI50 in [7] is 13.6 µM; in [8] it was 10.5 µM; in [9], 0.0922 µM; in test [10] it was 11.3 µM. For the same molecule, the TGI in [1] amounted to 15.4 µM; in test [2] it was 19 µM; in test [3], 27.7 µM; in test [4], 30.1 µM; in test [5] it was 20.8 µM; in test [6], 12.2 µM. Besides, the TGI in [7] came to 49.6 µM; in test [8] it was 24 µM; in test [9], 5.21 µM; in [10] it was 25.8 µM.

Take `CN(C)CCNC(=O)c1cccc2ccc(-c3cccnc3)nc12`: the TGI is 24.1 µM in test [1]; 13.6 µM in test [2]; 19.2 µM in test [3]; 26.3 µM in test [4]; 23.2 µM in test [5]; above 100 µM in test [6]. In addition, the TGI amounted to 19.8 µM in test [7], 15.1 µM in test [8], 23.7 µM in test [9] and 22.6 µM in test [10].

As to `O=C(N[C@@H]1C=CCC[C@@H]1c1ccccc1)OCc1ccccc1`, the TGI in test [1] stood at 45.6 µM; in test [2], 33.1 µM; in test [3], 34.6 µM; in test [4], 59 µM; in test [5], 64.7 µM; in [6], 39.7 µM. Further, the TGI in [7] came out at 72.5 µM; in test [8], 28.9 µM; in test [9] it was 60.6 µM; in test [10] it was 99.6 µM.

For `O=C(C[C@@]1(O)C(=O)Nc2c(Cl)ccc(Cl)c21)c1ccc(C2CC2)cc1`, the GI50 in [1] is 0.344 µM; in test [2] it was 0.298 µM; in [3], 0.516 µM; in test [4], 1.3 µM; in [5], 0.726 µM; in test [6], 1.39 µM. For the same molecule, the GI50 was 0.631 µM in [7], 0.541 µM in [8], 0.143 µM in test [9] and 0.69 µM in [10]. Also, the TGI in [1] came out at 13.3 µM; in [2], 2.13 µM; in [3] it was 19.2 µM; in test [4], 18.5 µM; in [5], 31.3 µM; in test [6], 20 µM. The TGI is 30.7 µM in test [7], 13.9 µM in [8], 0.588 µM in [9] and 18.1 µM in test [10].

On to `Cc1coc2c1CC1OC1(C)CCC1OC1(C)C2` (centres undefined), for which the TGI in test [1], in test [2], in test [3], in [4], in test [5] and in test [6] was above 100 µM each time. Moreover, the TGI in [7], in test [8], in test [9] and in test [10] was above 100 µM throughout.

Regarding `S=c1nc[nH]c2nc[nH]c12`, the GI50 was 1.76 µM and 12.3 µM in test [1]; 18.8 µM in [2]; 2.09 µM and 8 µM in test [3]; 12.3 µM in [4]; 4.88 µM in test [5]; 0.7 µM and 5.34 µM in [6]. In addition, the GI50 was > 100 µM and 353 µM in [7]; 0.321 µM and 3.01 µM in [8]; 65.9 µM and 213 µM in test [10]. Also, the TGI in test [1] was > 100 µM and 735 µM and > 750 µM; in test [2] it was > 100 µM and 546 µM and > 750 µM; in test [3], > 100 µM and 526 µM and > 750 µM; in test [4], > 100 µM and 681 µM and > 750 µM; in test [5], above 737 µM; in test [6] it was above 750 µM. Further, the TGI was > 100 µM and 741 µM and > 750 µM in test [7]; 41.4 µM and 111 µM and 192 µM in [8]; > 100 µM and 402 µM and > 621 µM in [9]; above 750 µM in test [10].

As to `O=C(c1ccco1)c1ccccc1C(=O)c1ccco1`, the TGI in test [1], in test [2], in [3], in test [4], in test [5] and in [6] was above 100 µM throughout. Further, the TGI in [7], in test [8], in test [9] and in test [10] was above 100 µM in each case.
